From patent publication US20040254629A1, “Methods and apparatus for treatment of aneurysmal tissue” (priority 2003, published 2004)

How the values were obtained:
[1] = test system: IL-1α expression in stimulated human-derived white blood cells; assay: Combination therapeutic assay, IL-1α content; assay type: cell-based; details: DOX at 5.69 ug/ml, DEX at 1 ug/ml, alone or combined; 24 hours at 37° C.
Protocol: To assay for cytokine concentration, the solution in each test well was transferred to microcentrifuge tubes and centrifuged (3000 rpm) for 5 minutes to pellet any cells that were drawn from the wells. The supernatants were then transferred to fresh tubes and stored in a minus 85° C. freezer until used. The cytokine content in the stored supernatants was determined using commercially available cytokine ELISA- (enzyme linked immunosorbent assays) based assays from, for example, R&D Systems, Minneapolis, Minn., using the manufacturer's instructions. Essentially, the procedure was as follows: first, 200 μl of the test samples were added to each well of the microplates. The wells of the microplates were precoated with monoclonal antibodies specific to the cytokine being analyzed. All lipopolysaccharide-(LPS) treated samples were diluted 1:10 in RPMI growth media prior to the assay. The plates were covered and incubated for 2 hours at room temperature. Each well was then washed three times with wash buffer (350 μl/well), and 200 μl of cytokine conjugate were added to each well, covered, and incubated for 1 hour at room temperature. Next, 200 μl of substrate solution were added to each well and incubated for 20 minutes at room temperature. […] The optical density readings of the color development were determined in a microplate reader set at 450 nm wavelength. […]

[2] = test system: MMP-9 secretion from PHA-stimulated human white blood cells; assay: MMP assay: effect of doxycycline on MMP-9 secretion from PHA-stimulated human white blood cells; assay type: cell-based; details: PHA 10 μg/ml
Protocol: To perform an MMP assay to assess the effect of doxycycline on human-derived white blood cells, cells were seeded into 24 well tissue culture plates. The drug concentrations selected for the experiment were based on measured tissue levels of doxycycline following an oral dose of 100 mg. The cells were exposed to the drugs under two schemes. In scheme 1, the cells, the stimulant and the drug were all added at the same time and allowed to incubate for a period of 24 hours. In scheme 2 the cells were preconditioned with the drug for a period of 24 hours and then stimulated with PHA for an additional 24 hours. In this case the total experimental time duration was 48 hours. The seeding densities: 5×10^6 cells per well and assay conditions were as follows: PHA at a working concentration of 10 μg/ml; doxycycline concentrations at 0, 2.5, 5, 10, 12, or 15 μM and either a 24 hour (scheme 1) or 48 hour (scheme 2) duration. MMP-9 analysis was performed using a Quantikine Human MMP-9 (total) Immunoassay (R&D Systems, #DMP900).

[3] = Stability assay of doxycycline and dexamethasone in combination; assay type: physicochemical; details: DOX (56.9 ug/ml)+DEX (10 ug/ml) mixture, 4 days at 37° C.
Protocol: A stability assay was first performed to ascertain whether doxycycline and dexamethasone react with one another. High concentrations of each solution were combined (DOX (56.9 ug/ml)+DEX (10 ug/ml)) and allowed to incubate for 4 days at 37° C. in an orbital shaker. At the end of four days the concentrations of each drug in the mixture was determined by spectrophotometry and compared to the original concentrations.

[4] = test system: MMP-9 expression in stimulated human-derived white blood cells; assay: Combination therapeutic assay, MMP-9 content; assay type: cell-based; details: DOX at 5.69 ug/ml, DEX at 1 ug/ml, alone or combined; 24 hours at 37° C.
Protocol: Next, to test the effect of therapeutics in combination, assays were performed to determine the effect of doxycycline alone (DOX at 5.69 ug/ml); dexamethasone alone (DEX at 1 ug/ml) and the effect of a combination of doxycycline and dexamethasone (DOX at 5.69 ug/ml)+DEX at 1 ug/ml). Dexamethasone is a potent agent with broad anti-inflammatory (against cytokines, chemokines, prostaglandins, etc.) and immunosuppressive properties. Dexamethasone also has known anti-angiogenic properties. Doxycycline was used as the MMP inhibitor for these studies.
Briefly, human-derived white blood cells were placed in a 24 well plate and exposed to a stimulant (PHA or lipopolysaccharide (LPS)) and the three different treatment regimes for a period of 24 hours at 37° C. The supernatants were then collected and assayed for MMP-9 and IL-1 content.

[5] = cited from earlier work; for elimination / clearance route: in vivo
ACE = ACE (Homo sapiens, UniProt P12821); details: in vitro; cited from earlier work
Sequence of ACE (P12821 30-1306, species assumed): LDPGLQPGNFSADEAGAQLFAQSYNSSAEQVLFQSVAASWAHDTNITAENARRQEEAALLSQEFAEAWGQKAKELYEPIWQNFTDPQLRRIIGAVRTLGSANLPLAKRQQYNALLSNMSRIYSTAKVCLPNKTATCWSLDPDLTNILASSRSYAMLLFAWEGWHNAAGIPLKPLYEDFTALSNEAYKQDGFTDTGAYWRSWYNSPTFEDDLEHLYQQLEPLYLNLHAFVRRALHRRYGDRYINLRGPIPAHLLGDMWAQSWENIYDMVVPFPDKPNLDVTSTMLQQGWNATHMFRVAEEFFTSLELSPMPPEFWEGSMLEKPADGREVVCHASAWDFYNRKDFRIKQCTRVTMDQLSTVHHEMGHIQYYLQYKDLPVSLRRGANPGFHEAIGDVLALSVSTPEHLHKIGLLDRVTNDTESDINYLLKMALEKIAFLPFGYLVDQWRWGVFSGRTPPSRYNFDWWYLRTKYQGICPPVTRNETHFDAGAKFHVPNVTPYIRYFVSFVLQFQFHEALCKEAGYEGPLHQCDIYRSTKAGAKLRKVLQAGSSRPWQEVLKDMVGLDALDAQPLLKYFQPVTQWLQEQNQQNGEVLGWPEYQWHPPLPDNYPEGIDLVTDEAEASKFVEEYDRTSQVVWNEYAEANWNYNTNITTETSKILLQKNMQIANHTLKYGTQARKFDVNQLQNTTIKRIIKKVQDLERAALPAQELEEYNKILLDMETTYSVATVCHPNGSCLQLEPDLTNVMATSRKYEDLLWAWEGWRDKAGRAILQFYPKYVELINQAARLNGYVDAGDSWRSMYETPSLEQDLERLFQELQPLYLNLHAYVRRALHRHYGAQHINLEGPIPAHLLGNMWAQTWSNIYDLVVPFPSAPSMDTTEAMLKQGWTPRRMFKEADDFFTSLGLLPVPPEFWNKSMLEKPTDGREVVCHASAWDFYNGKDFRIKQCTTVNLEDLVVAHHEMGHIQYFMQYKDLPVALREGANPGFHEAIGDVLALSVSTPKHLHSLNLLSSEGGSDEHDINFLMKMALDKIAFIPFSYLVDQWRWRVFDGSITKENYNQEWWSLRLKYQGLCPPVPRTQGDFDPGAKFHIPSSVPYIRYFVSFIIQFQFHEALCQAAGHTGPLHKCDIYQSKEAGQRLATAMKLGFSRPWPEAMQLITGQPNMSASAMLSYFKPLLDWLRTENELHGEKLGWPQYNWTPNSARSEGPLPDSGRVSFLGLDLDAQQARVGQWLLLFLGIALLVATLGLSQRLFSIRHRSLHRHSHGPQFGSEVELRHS

[6] = test system: MMP-9 secretion from human-derived white blood cells; assay: MMP assay development: effect of stimulants on MMP-9 release from human-derived white blood cells; assay type: cell-based; details: PHA 10 μg/ml alone, five million (5M) cells per well, 24 hours at 37° C.
Description: MMP assay development involved two separate determinations. The first set of experiments established the working conditions for the assay, namely the optimal cell density and the choice and concentration of stimulant. MMP-9 is secreted by monocytes, macrophages, and neutrophils, amongst other cells; however, under non-stimulatory in vitro conditions the basal level secretion of MMP-9 by these cells is very low. Thus, for the second set of experiments (performed to determine the inhibitory effects of potential drugs or reagents), the levels of MMP secretion were raised to sufficiently high levels so that drug-mediated differences could be detected.
Human-derived white blood cells were isolated from human blood by a procedure such as that described above. The total cell population was adjusted and added to 24 well polystyrene tissue culture plates in the following cell densities: 5 million, 2 million, 1 million and 0.5 million per well. The stimulants used to stimulate MMP secretion were PMA (phorbol 12-myristate 13-acetate, Sigma #P8139) at a working concentration of 100 nM; PHA (phythohemagglutinin, Sigma #L9017) at a working concentration of 10 μg/ml; and PMA (100 nM)+PHA (10 μg/ml). […] The secreted MMP was determined by ELISA using a Quantikine Human MMP-9 (total) Immunoassay (R&D Systems, #DMP900).

C[C@@H]1C[C@H]2[C@@H]3CCC4=CC(=O)C=C[C@]4(C)[C@@]3(F)[C@@H](O)C[C@]2(C)[C@@]1(O)C(=O)CO [DEX, dexamethasone]
inhibition of IL expression compared to the control [1]: approximately 85%

CC1c2cccc(O)c2C(=O)C2=C(O)C3(O)C(=O)C(C(N)=O)=C(O)C(N(C)C)C3C(O)C21.O (stereo not shown) [DOX, 4-(Dimethylamino)-1,4,4a,5,5a,6,11, 12a-octahydro-3,5,10,12,12a-pentahydroxy-6-methyl-1,11-dioxo-2-naphthacenecarboxamide monohydrate]
effect on MMP-9 expression over 0-15 μM ([2]; doxycycline 0, 2.5, 5, 10, 12, or 15 μM): dose-dependent inhibitory effect
inhibition of MMP-9 expression ([2]; doxycycline at 15 μM, 5×10^6 cells per well, scheme 1 (24 hour) or scheme 2 (48 hour)): ~60%
inhibition of IL expression compared to the control [1]: no effect on inflammatory cytokine expression
Final Concentration ([3]; MES buffer): ˜56.7 ug/ml
Final Concentration ([3]; PBS buffer): ˜57.5/ml ug/ml
inhibition of MMP-9 compared to the control [4]: approximately 32%

C[C@H](CS)C(=O)N1CCC[C@H]1C(=O)O [captopril]
bioavailability ([5]; given orally): about 75%

CCC(=O)O[C@@H](O[P@](=O)(CCCCc1ccccc1)CC(=O)N1C[C@H](C2CCCCC2)C[C@H]1C(=O)O)C(C)C [fosinopril]
elimination / clearance route [5]: balanced elimination by the liver and kidneys

NCCCC[C@H](N[C@@H](CCc1ccccc1)C(=O)O)C(=O)N1CCC[C@H]1C(=O)O [lisinopril]
time of peak concentrations in the plasma ([5]; oral administration): about 7 hours
ACE inhibitor potency compared with enalaprilat (ACE): slightly more potent

CCOC(=O)[C@H](CCc1ccccc1)N[C@@H](C)C(=O)N1CC2(C[C@H]1C(=O)O)SCCS2 [spirapril]
elimination / clearance route [5]: balanced elimination by the liver and kidneys

phythohemagglutinin [PHA]
increase in MMP-9 secretion over basal levels [6]: greater than 200 fold
